Measurements: US7420056B2, “Substituted bicyclic imidazo-3-ylamine compounds” (Gruenenthal GmbH, priority 2004, dated 2008)
pIC50: −log10 of the molar value.

target: mGluR5 receptor (Sus scrofa, UniProt I3LUI7); experiment: Affinity for the mGluR5 receptor: inhibition of 3[H]-MPEP binding in pig brain homogenate; conditions: 10 μM compound, 5 nM 3[H]-MPEP, read-out: mGluR5 receptor inhibition of ^3[H]-MPEP binding [10 μM] in % at a concentration of the example compounds of 10 μM
Method: 1. Method for Determining Affinity for the mGluR5 Receptor
Pig brain homogenate is produced by homogenisation (Polytron Pt 3000, Kinematica AG, 10,000 revolutions per minute for 90 seconds) of pig brain hemispheres without medulla, cerebellum and pons in a buffer of pH 8.0 (30 mM Hepes, Sigma, order number H3375+1 tablet Complete Roche Diagnostics, order number 1836145 made up to 100 ml) in a ratio of 1:20 (brain weight/volume) and differential centrifugation at 900×g and 40,000×g. 450 μg of protein from brain homogenate is incubated in each case in 250 μl incubation batches in 96-well microtitre plates with 5 nM 3[H]-MPEP (Tocris, order number R1212) (MPEP=2-methyl-6-[…]) and the compounds to be investigated (10 μM in the test) in the buffer (as above) at room temperature for 60 minutes.
The batches are then filtered with the assistance of a Brandel Cell Harvester (Brandel, Grade Robotic 9600) on Unifilter plates with glass filter mats (Perkin Elmer, order number 6005177) and then washed 3 times with buffer (as above) using 250 μl per sample. The filter plates are then dried for 60 minutes at 55° C. Then 30 μl of Ultima Gold™ scintillating material (Packard BioScience, order number 6013159) is added per well and after 3 hours the samples are measured using the β counter (Microbeta, Perkin Elmer). Nonspecific binding is determined by the addition of 10 μM MPEP (Tocris, order number 1212).

mGluR5 receptor, sequence (I3LUI7 19-1212): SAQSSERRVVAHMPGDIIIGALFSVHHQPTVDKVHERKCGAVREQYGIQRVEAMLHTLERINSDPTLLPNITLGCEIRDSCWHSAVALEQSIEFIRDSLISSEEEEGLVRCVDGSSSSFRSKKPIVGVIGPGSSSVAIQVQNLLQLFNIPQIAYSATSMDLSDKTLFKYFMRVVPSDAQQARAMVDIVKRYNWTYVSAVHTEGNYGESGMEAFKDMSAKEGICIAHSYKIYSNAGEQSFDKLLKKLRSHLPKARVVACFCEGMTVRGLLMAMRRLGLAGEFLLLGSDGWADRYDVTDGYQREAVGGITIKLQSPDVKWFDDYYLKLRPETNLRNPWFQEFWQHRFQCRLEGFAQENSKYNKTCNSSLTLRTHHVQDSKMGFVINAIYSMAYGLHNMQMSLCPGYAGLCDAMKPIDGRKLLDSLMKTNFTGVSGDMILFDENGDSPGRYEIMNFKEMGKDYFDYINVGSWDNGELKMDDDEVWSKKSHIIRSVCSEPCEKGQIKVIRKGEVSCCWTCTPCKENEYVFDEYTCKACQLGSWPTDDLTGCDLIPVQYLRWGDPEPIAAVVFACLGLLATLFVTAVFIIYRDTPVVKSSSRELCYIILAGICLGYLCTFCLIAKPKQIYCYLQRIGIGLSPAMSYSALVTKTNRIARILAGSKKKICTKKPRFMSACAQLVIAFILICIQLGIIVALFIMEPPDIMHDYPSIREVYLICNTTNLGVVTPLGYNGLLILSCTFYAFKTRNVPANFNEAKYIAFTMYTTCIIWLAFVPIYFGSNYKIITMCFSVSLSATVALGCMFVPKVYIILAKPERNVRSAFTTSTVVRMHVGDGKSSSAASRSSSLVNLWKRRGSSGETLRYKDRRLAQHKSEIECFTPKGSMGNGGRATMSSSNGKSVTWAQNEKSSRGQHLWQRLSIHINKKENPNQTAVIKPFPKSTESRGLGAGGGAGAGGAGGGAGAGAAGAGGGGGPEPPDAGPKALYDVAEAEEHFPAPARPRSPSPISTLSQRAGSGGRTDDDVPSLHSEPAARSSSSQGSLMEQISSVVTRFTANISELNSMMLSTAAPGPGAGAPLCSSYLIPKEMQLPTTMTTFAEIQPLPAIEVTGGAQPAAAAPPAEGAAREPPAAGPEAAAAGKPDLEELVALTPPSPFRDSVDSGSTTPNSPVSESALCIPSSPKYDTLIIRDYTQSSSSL

| Structure (SMILES) | inhibition at 10 µM [%] |
| --- | --- |
| C(#Cc1ccc(-c2nc3cnccn3c2NC2CCCC2)s1)c1ccccc1 [Example 1, cyclopentyl-[2-(5-phenylethynyl-thiophen-2-yl)-imidazo[1,2-a]pyrazin-3-yl]-amine] | 52 |
| Cc1cccc2nc(-c3ccc(C#Cc4ccccc4)s3)c(NCC3CCCCC3)n12 [Example 2, cyclohexylmethyl-[5-methyl-2-(5-phenylethynyl-thiophen-2-yl)-imidazo[1,2-a]pyridin-3-yl]-amine] | 95 |
| Cc1ccc2nc(-c3ccc(C#Cc4ccccc4)s3)c(NCC3CCCCC3)n2c1 [Example 3, cyclohexylmethyl-[6-methyl-2-(5-phenylethynyl-thiophen-2-yl)-imidazo[1,2-a]pyridin-3-yl]-amine] | 95 |
| Cc1ccn2c(NCC3CCCCC3)c(-c3ccc(C#Cc4ccccc4)s3)nc2c1 [Example 4, cyclohexylmethyl-[7-methyl-2-(5-phenylethynyl-thiophen-2-yl)-imidazo[1,2-a]pyridin-3-yl]-amine] | 91 |
| Cc1cccn2c(NCC3CCCCC3)c(-c3ccc(C#Cc4ccccc4)s3)nc12 [Example 5, cyclohexylmethyl-[8-methyl-2-(5-phenylethynyl-thiophen-2-yl)-imidazo[1,2-a]pyridin-3-yl]-amine] | 100 |
| Cc1cc(C)n2c(NCC3CCCCC3)c(-c3ccc(C#Cc4ccccc4)s3)nc2c1 [Example 6, cyclohexylmethyl-[5,7-dimethyl-2-(5-phenylethynyl-thiophen-2-yl)-imidazo[1,2-a]pyridin-3-yl]-amine] | 92 |
| C(#Cc1ccc(-c2nc3c(OCc4ccccc4)cccn3c2NCC2CCCCC2)s1)c1ccccc1 [Example 7, [8-benzyloxy-2-(5-phenylethynyl-thiophen-2-yl)-imidazo[1,2-a]pyridin-3-yl]-cyclohexylmethyl-amine] | 89 |
| C(#Cc1ccc(-c2nc3cnccn3c2NCC2CCCCC2)s1)c1ccccc1 [Example 8, cyclohexylmethyl-[2-(5-phenylethynyl-thiophen-2-yl)-imidazo[1,2-a]pyrazin-3-yl]-amine] | 100 |
| C(#Cc1ccc(-c2nc3ncccn3c2NCC2CCCCC2)s1)c1ccccc1 [Example 9, cyclohexylmethyl-[2-(5-phenylethynyl-thiophen-2-yl)-imidazo[1,2-a]pyrimidin-3-yl]-amine] | 98 |
| COc1ccc(CNc2c(-c3ccc(C#Cc4ccccc4)s3)nc3cccc(C)n23)cc1 [Example 10, (4-methoxy-benzyl)-[5-methyl-2-(5-phenylethynyl-thiophen-2-yl)-imidazo[1,2-a]pyridin-3-yl]-amine] | 95 |
| COc1ccc(CNc2c(-c3ccc(C#Cc4ccccc4)s3)nc3ccc(C)cn23)cc1 [Example 11, (4-methoxy-benzyl)-[6-methyl-2-(5-phenylethynyl-thiophen-2-yl)-imidazo[1,2-a]pyridin-3-yl]-amine] | 82 |
| COc1ccc(CNc2c(-c3ccc(C#Cc4ccccc4)s3)nc3cc(C)ccn23)cc1 [Example 12, (4-methoxy-benzyl)-[7-methyl-2-(5-phenylethynyl-thiophen-2-yl)-imidazo[1,2-a]pyridin-3-yl]-amine] | 96 |
| COc1ccc(CNc2c(-c3ccc(C#Cc4ccccc4)s3)nc3c(C)cccn23)cc1 [Example 13, (4-methoxy-benzyl)-[8-methyl-2-(5-phenylethynyl-thiophen-2-yl)-imidazo[1,2-a]pyridin-3-yl]-amine] | 96 |
| COc1ccc(CNc2c(-c3ccc(C#Cc4ccccc4)s3)nc3cc(C)cc(C)n23)cc1 [Example 14, [5,7-dimethyl-2-(5-phenylethynyl-thiophen-2-yl)-imidazo[1,2-a]pyridin-3-yl]-(4-methoxy-benzyl)-amine] | 100 |
| COc1ccc(CNc2c(-c3ccc(C#Cc4ccccc4)s3)nc3c(OCc4ccccc4)cccn23)cc1 [Example 15, [8-benzyloxy-2-(5-phenylethynyl-thiophen-2-yl)-imidazo[1,2-a]pyridin-3-yl]-(4-methoxy-benzyl)-amine] | 98 |
| COc1ccc(CNc2c(-c3ccc(C#Cc4ccccc4)s3)nc3ccccn23)cc1 [Example 16, (4-methoxy-benzyl)-[2-(5-phenylethynyl-thiophen-2-yl)-imidazo[1,2-a]pyridin-3-yl]-amine] | 93 |

| Structure (SMILES) | inhibition at 10 µM [%] |
| --- | --- |
| COc1ccc(CNc2c(-c3ccc(C#Cc4ccccc4)s3)nc3cnccn23)cc1 [Example 17, (4-methoxy-benzyl)-[2-(5-phenylethynyl-thiophen-2-yl)-imidazo[1,2-a]pyrazin-3-yl]-amine] | 96 |
| Cc1ccc2nc(-c3ccc(C#Cc4ccccc4)s3)c(NC(C)(C)C)n2c1 [Example 19, tert-butyl-[6-methyl-2-(5-phenylethynyl-thiophen-2-yl)-imidazo[1,2-a]pyridin-3-yl]-amine] | 78 |
| COc1cccc(Nc2c(-c3ccc(C#Cc4ccccc4)s3)nc3c(OCc4ccccc4)cccn23)c1 [Example 20, [8-benzyloxy-2-(5-phenylethynyl-thiophen-2-yl)-imidazo[1,2-a]pyridin-3-yl]-(3-methoxy-phenyl)-amine] | 79 |
| COc1cccc(CNc2c(-c3ccc(C#Cc4ccccc4)s3)nc3cccc(C)n23)c1 [Example 21, (3-methoxy-benzyl)-[5-methyl-2-(5-phenylethynyl-thiophen-2-yl)-imidazo[1,2-a]pyridin-3-yl]-amine] | 91 |
| COc1cccc(CNc2c(-c3ccc(C#Cc4ccccc4)s3)nc3c(C)cccn23)c1 [Example 22, (3-methoxy-benzyl)-[8-methyl-2-(5-phenylethynyl-thiophen-2-yl)-imidazo[1,2-a]pyridin-3-yl]-amine] | 84 |
| COc1cccc(CNc2c(-c3ccc(C#Cc4ccccc4)s3)nc3cc(C)cc(C)n23)c1 [Example 23, [5,7-dimethyl-2-(5-phenylethynyl-thiophen-2-yl)-imidazo[1,2-a]pyridin-3-yl]-(3-methoxy-benzyl)-amine] | 86 |
| COc1cccc(CNc2c(-c3ccc(C#Cc4ccccc4)s3)nc3c(OCc4ccccc4)cccn23)c1 [Example 24, [8-benzyloxy-2-(5-phenylethynyl-thiophen-2-yl)-imidazo[1,2-a]pyridin-3-yl]-(3-methoxy-benzyl)-amine] | 94 |
| COc1cccc(CNc2c(-c3ccc(C#Cc4ccccc4)s3)nc3ccccn23)c1 [Example 25, (3-methoxy-benzyl)-[2-(5-phenylethynyl-thiophen-2-yl)-imidazo[1,2-a]pyridin-3-yl]-amine] | 81 |
| COc1cccc(CNc2c(-c3ccc(C#Cc4ccccc4)s3)nc3cnccn23)c1 [Example 26, (3-methoxy-benzyl)-[2-(5-phenylethynyl-thiophen-2-yl)-imidazo[1,2-a]pyrazin-3-yl]-amine] | 97 |
| Cc1ccc2nc(-c3ccc(C#Cc4ccccc4)s3)c(NC(C)c3ccccc3)n2c1 (stereo not drawn) [Example 27, [6-methyl-2-(5-phenylethynyl-thiophen-2-yl)-imidazo[1,2-a]pyridin-3-yl]-(1-phenyl-ethyl)-amine] | 82 |
| Cc1ccn2c(NC(C)c3ccccc3)c(-c3ccc(C#Cc4ccccc4)s3)nc2c1 (stereo not drawn) [Example 28, [7-methyl-2-(5-phenylethynyl-thiophen-2-yl)-imidazo[1,2-a]pyridin-3-yl]-(1-phenyl-ethyl)-amine] | 98 |
| Cc1cc(C)n2c(NC(C)c3ccccc3)c(-c3ccc(C#Cc4ccccc4)s3)nc2c1 (stereo not drawn) [Example 29, [5,7-dimethyl-2-(5-phenylethynyl-thiophen-2-yl)-imidazo[1,2-a]pyridin-3-yl]-(1-phenyl-ethyl)-amine] | 87 |
| CC(Nc1c(-c2ccc(C#Cc3ccccc3)s2)nc2c(OCc3ccccc3)cccn12)c1ccccc1 (stereo not drawn) [Example 30, [8-benzyloxy-2-(5-phenylethynyl-thiophen-2-yl)-imidazo[1,2-a]pyridin-3-yl]-(1-phenyl-ethyl)-amine] | 73 |
| Cc1cc(C)n2c(NCc3ccccc3Cl)c(-c3ccc(C#Cc4ccccc4)s3)nc2c1 [Example 32, (2-chloro-benzyl)-[5,7-dimethyl-2-(5-phenylethynyl-thiophen-2-yl)-imidazo[1,2-a]pyridin-3-yl]-amine] | 98 |
| Fc1ccc(Nc2c(-c3ccc(C#Cc4ccccc4)s3)nc3cc(-c4ccccc4)ccn23)cc1Cl [Example 33, (3-chloro-4-fluoro-phenyl)-[7-phenyl-2-(5-phenylethynyl-thiophen-2-yl)-imidazo[1,2-a]pyridin-3-yl]-amine] | 98 |

same assay, conditions: 3[H]-MPEP binding

| Structure (SMILES) | pIC50 |
| --- | --- |
| CC(C)(C)Nc1c(-c2ccc(C#Cc3ccccc3)s2)nc2cnccn12 [Example 18, tert-butyl-[2-(5-phenylethynyl-thiophen-2-yl)-imidazo[1,2-a]pyrazin-3-yl]-amine] | 7.19 |
| CC(Nc1c(-c2ccc(C#Cc3ccccc3)s2)nc2cnccn12)c1ccccc1 (stereo not drawn) [Example 31, (1-phenyl-ethyl)-[2-(5-phenylethynyl-thiophen-2-yl)-imidazo[1,2-a]pyrazin-3-yl]-amine] | 6.28 |
